The test system of data set [1] is KK-Ay mice. The data set is described as follows: Fat weight reducing effect on obesity model mice (KK-Ay mice). As to conditions: oral once a day for 35 days. The data set is classed as in vivo, mouse. On the procedure: This test employed compound A, as well as (R)2-[3-[ [N-(5-fluorobenzoxazol2-yl)-N2-phenoxyethyl]aminomethyl]phenoxy]butyric acid (hereinafter will be referred to as “compound B”), which is an optically active substance of the compound disclosed in Example 229 in Patent Document 2. Compound A, compound B, or fenofibrate was administered to KK-Ay mice, and the effects of the compound on epididymal fat weight and mesenteric fat weight were determined through the below-described methods.
Method: Male KK-Ay mice (KK-Ay/TaJcl) were purchased from Clea Japan, Inc. (10 weeks old upon test). Each compound was orally administered to mice once a day for […]. Throughout the test period, the mice were reared in a rearing cage (light-dark cycle (light period by interior lighting: 7:00 a.m. to 7:00 p.m.), temperature: 23±3° C., humidity: 55+15%) under conditions where solid feed (CE-2, product of Oriental Yeast Co., Ltd.) and tap water were fed ad libitum.
Each of compound A, compound B, and fenofibrate was suspended in a 0.5 mass % aqueous solution of methylcellulose (Metolose (registered trademark), SM-400, product of Shin-Etsu Chemical Co., Ltd.) so that the dose of the aqueous solution was adjusted to 5 mL/kg. The resultant suspension was refrigerated in a light-shielding bottle at 4° C., and drug preparation was carried out every seven days.
(§1) Animals were divided into the following four groups (six animals per group): a first group (control), a second group (administration of compound A (1 mg/kg)), a third group (administration of compound B (3 mg/kg)), and a fourth group (administration of fenofibrate (300 mg/kg)).
(§2) Each drug was orally administered once a day (in the morning) for 35 days. A 0.5 mass % aqueous methylcellulose solution was orally administered (5 mL/kg) to the animals of the first group (control).
After completion of administration, epididymal fat and mesenteric fat were removed and weighed.
The results were represented as percent reduction (mean value) in fat weight in each compound administration group with respect to the control group.

The test system of data set [2] is Zucker fatty rats. The data set can be described thus: Adverse events and feed intake during administration to Zucker fatty rats. The class given is in vivo, rat. On the procedure: Rats were divided into the following four groups (six rats per group) so that body weights, plasma total cholesterol levels, and plasma triglyceride levels were averaged in the groups: a first group (control), a second group (administration of compound A (1 mg/kg)), a third group (administration of compound A (3 mg/kg)), and a fourth group (administration of fenofibrate (300 mg/kg)). A group of five Zucker lean rats was employed as a negative control group.
Each drug was orally administered once a day (in the morning) for continuous 14 days. A 0.5 mass % aqueous methylcellulose solution (2 mL/kg) was orally administered to the rats of the first group (control).
However, from 11 days to 14 days after administration, feed intake was reduced by 14% in the rats of the group of fenofibrate administration, which raised a concern about the toxicity of fenofibrate. Even under such a situation, fat weight tended to decrease only slightly.

The test system of the next data set is rat model. The following applies: cited from earlier work.
For data set [3], the system named is Zucker fatty rats. The data set is described as follows: Plasma triglyceride (TG) level in Zucker fatty rats, enzymatic method. The data set is classed as in vivo, rat. As to conditions: compound A 3 mg/kg, oral once a day for 14 days, blood on day 14 after four-hour fasting. On the procedure: (§3) This test employed (R)-2-[3-[[N-(benzoxazol2-yl) -N-3-(4-methoxyphenoxy)propyl]aminomethyl]phenoxy]butyric acid (hereinafter will be referred to as “compound A”), which is an optically active substance of the compound disclosed in Example 14 in Patent Document 2. Compound A or fenofibrate was administered to Zucker fatty rats, and the effects of the compound on plasma triglyceride (TG) level, plasma FGF21 level, and epididymal fat weight were determined through the below-described methods.
(§4) Hyperlipidemic Zucker fatty rats with obesity due to overeating (Crlj: ZUC-Lepr Genotype: fa/fa) and Zucker lean rats without obesity (Crlj: ZUC-Lepr Genotype: fa/+ or +/+) were purchased from Charles River Laboratories Japan Inc. (eight weeks old upon test).
(§5) Throughout the test period, the rats were reared in a rearing cage (light-dark cycle (light period by interior lighting: 7:00 a.m. to 7:00 p.m.), temperature: 23+3° C., humidity: 55±15%) under conditions where solid feed (CE-2, product of Oriental Yeast Co., Ltd.) and tap water were fed ad libitum. […]
(§6) On day 14 after initiation of administration, blood was collected after four-hour fasting following administration, and plasma triglyceride level and plasma FGF21 level were measured through an enzymatic method and ELISA (Human FGF-21 ELISA Kit, product of Biovender), respectively. […]

The subject of data set [4] is KK-Ay mice. The following applies: mouse, in vivo, 1 mg/kg. The protocol:
as §1, §2

The next data set has as its system FGF21. The data set is described as follows: Plasma FGF21 level in Zucker fatty rats, ELISA. As to conditions: compound A 3 mg/kg, oral once a day for 14 days, day 14. The class given is in vivo, rat. The protocol: as §3, §4, §5, §6
Data set [5] relates to Zucker fatty rats. The data set is described as follows: Epididymal fat weight (indicator of visceral fat weight) in Zucker fatty rats. The data set is classed as in vivo, rat. The following applies: compound A 3 mg/kg, oral once a day for 14 days. The protocol:
as §3, §4, §5, §6

Turning to `CC[C@@H](Oc1cccc(CN(CCOc2ccccc2)c2nc3cc(F)ccc3o2)c1)C(=O)O` [Compound B, (R)2-[3-[ [N-(5-fluorobenzoxazol2-yl)-N2-phenoxyethyl]aminomethyl]phenoxy]butyric acid], in the data set on KK-Ay mice [1] (3 mg/kg), the “Mesenteric fat weight, percent reduction (mean value) with respect to the control group” value (“Mesenteric fat weight, percent reduction” below) came to 17%.
Regarding `CC(C)OC(=O)C(C)(C)Oc1ccc(C(=O)c2ccc(Cl)cc2)cc1` [Fenofibrate, fenofibrate], in the data set on KK-Ay mice [1] (300 mg/kg), the “Epididymal fat weight, percent reduction (mean value) with respect to the control group” value came to 15% and the “Mesenteric fat weight, percent reduction” value is 13%. Moreover, the “feed intake compared with control group” value in the data set on Zucker fatty rats [2] (fenofibrate 300 mg/kg, Zucker fatty rats, for 10 days after administration) is on record as “maintained equal to that in the rats of the control group”. For the same molecule, the “reduction of feed intake” value in the data set on Zucker fatty rats [2] (fenofibrate 300 mg/kg, Zucker fatty rats, from 11 days to 14 days after administration) was 14%. The “adverse events at high dose” value with rat model (high dose of fenofibrate, rat model) is “adverse events (e.g., decrease in hemoglobin, or necrosis of liver cells) occur in the model”. Besides, in the data set with rat model (rats, dose of 30 mg/kg or more), the adverse events result was “various adverse events occur in the rats”.
On to `CC[C@@H](Oc1cccc(CN(CCCOc2ccc(OC)cc2)c2nc3ccccc3o2)c1)C(=O)O` [Compound A, (R)-2-[3-[[N-(benzoxazol2-yl) -N-3-(4-methoxyphenoxy)propyl]aminomethyl]phenoxy]butyric acid], for which the “plasma triglyceride level versus control group” value in the data set with Zucker fatty rats [3] is given as “significantly (p<0.05) lower than that in the control group”. Besides, the “adverse events during the period of administration” value in the data set with KK-Ay mice [4] is reported as “adverse events were not particularly observed”; in the data set with Zucker fatty rats [2] (rat, in vivo, po), “adverse events were not particularly observed”. The “plasma FGF21 level versus control group” value in the data set with FGF21 was “significantly (p<0.001) higher than that in the control group”. The “epididymal fat weight versus control group” value in the data set on Zucker fatty rats [5] is “considerably and statistically significantly lower than that in the control group”. Moreover, in the data set with KK-Ay mice [1] (1 mg/kg), the “Epididymal fat weight, percent reduction (mean value) with respect to the control group” value is 27%. Moreover, the “Mesenteric fat weight, percent reduction” value with KK-Ay mice [1] (1 mg/kg) was determined as 20%.
